Assay results from patent US20240158392A1 (Janssen Biotech, Inc., priority 2021, published 2024).
pIC50: −log10 of the molar value.

Assays:
[1] = biological target: T1, SIK2 (Homo sapiens, UniProt Q9H0K1); experiment: SIK2 Enzymatic Assay High Version 2 (High ATP); format: biochemical
In short: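 At room temperature, enzyme (6 nM, 2× final) was preincubated with compound for 30 min, then 6 mM ATP and 400 μM HDAC5tide (both 2× final) were added for 2 h. ADP formed was measured by ADP-Glo Max (2 h reagent, 1 h detection) using luminescence.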

[2] = biological target: T1, SIK2; experiment: SIK2 Enzymatic Assay Version 1 (ADP Glo); format: biochemical; settings: enzyme 0.6 nM, 160 μM ATP and 140 μM HDAC5tide (each 2× final concentration); 30 minutes pre-incubation, 4 hours; ADPGlo luminescence; read-out: SIK2 ADP Glo IC50 (μM) (Test Example 1)
In short: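 Room-temperature ADP-Glo luminescence assay; SIK2 added at 0.6 nM (2× final) and preincubated with compound for 30 min. Reaction stopped with ADP-Glo Reagent for 40 min, then detection reagent for at least 30 min; no-peptide (ATP-only) wells served as negative control.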

T1 sequence (Q9H0K1 whole entry, species assumed): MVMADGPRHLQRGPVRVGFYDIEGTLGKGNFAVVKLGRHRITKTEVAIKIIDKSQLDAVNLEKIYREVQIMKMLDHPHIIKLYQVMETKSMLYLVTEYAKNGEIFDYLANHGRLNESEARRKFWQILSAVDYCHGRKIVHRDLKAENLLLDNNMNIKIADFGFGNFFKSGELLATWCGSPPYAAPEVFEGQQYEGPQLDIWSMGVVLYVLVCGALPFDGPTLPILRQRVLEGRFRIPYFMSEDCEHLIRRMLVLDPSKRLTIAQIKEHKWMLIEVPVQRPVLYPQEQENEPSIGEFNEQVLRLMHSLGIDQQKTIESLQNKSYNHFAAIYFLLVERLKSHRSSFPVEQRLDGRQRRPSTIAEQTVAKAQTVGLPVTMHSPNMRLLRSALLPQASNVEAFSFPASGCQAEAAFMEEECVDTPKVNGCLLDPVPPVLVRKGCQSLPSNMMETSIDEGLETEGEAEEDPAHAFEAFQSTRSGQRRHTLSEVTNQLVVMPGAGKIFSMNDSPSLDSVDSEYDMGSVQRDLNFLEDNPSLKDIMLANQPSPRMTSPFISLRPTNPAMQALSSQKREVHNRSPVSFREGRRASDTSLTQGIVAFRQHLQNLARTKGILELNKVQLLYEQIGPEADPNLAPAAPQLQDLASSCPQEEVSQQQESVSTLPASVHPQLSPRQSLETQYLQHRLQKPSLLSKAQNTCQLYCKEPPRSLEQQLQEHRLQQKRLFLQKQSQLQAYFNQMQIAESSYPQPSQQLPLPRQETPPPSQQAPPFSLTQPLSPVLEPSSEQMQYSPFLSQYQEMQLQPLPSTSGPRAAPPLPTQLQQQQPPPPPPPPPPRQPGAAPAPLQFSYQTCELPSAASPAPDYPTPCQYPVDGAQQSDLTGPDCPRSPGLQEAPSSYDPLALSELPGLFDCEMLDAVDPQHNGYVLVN

| SMILES | pIC50 [1] | IC50 [2] [µM] |
| --- | --- | --- |
| N#Cc1cc(-c2ccn3nc(NC(=O)C4CC4)cc3c2)c(OCc2cccnc2)cn1 [Example 47, N-[5-[2-Cyano-5-(3-pyridylmethoxy)-4-pyridyl]pyrazolo[1,5-a]pyridin-2-yl]cyclopropanecarboxamide] | 6.81 | 0.0135 |
| Cc1ccnc(Nc2cc3cc(-c4cc(C)ncc4OC[C@@H]4CNCCO4)ccn3n2)c1 [Example 427, 5-[2-methyl-5-[[(2S)-morpholin-2-yl]methoxy]-4-pyridyl]-N-(4-methyl-2-pyridyl)pyrazolo[1,5-a]pyridin-2-amine] | 7.94 | 0.0012 |
| N#Cc1cc(-c2ccn3nc(NC(=O)C4CC4)cc3c2)c(O[C@@H]2C[C@H]3C[C@@H]2CN3)cn1 [Example 24, N-[5-[5-[[(1R,4R,5R)-2-azabicyclo[2.2.1]heptan-5-yl]oxy]-2-cyano-4-pyridyl]pyrazolo[1,5-a]pyridin-2-yl]cyclopropanecarboxamide] | 6.84 | 0.00594 |
| CN1CCC(COc2cnc(C#N)cc2-c2ccn3nc(NC(=O)C4CC4)cc3c2)CC1 [Example 51, N-[5-[2-cyano-5-[(1-methyl-4-piperidyl)methoxy]-4-pyridyl]pyrazolo[1,5-a]pyridin-2-yl]cyclopropanecarboxamide] | 6.94 | 0.00509 |
| N#Cc1cc(-c2ccn3nc(NC(=O)C4CC4)cc3c2)c(O[C@H]2C[C@H]3CC[C@@H](C2)N3)cn1 [Example 82, (3-endo)-N-(5-(5-(((1R,3r,5S)-8-azabicyclo[3.2.1]octan-3-yl)oxy)-2-cyanopyridin-4-yl)pyrazolo[1,5-a]pyridin-2-yl)cyclopropanecarboxamide] | 8.30 | 0.000268 |
| N#Cc1cc(-c2ccn3nc(NC(=O)C4CC4)cc3c2)c(O[C@@H]2CCNC2)cn1 [Example 594, N-[5-[2-cyano-5-[(3R)-pyrrolidin-3-yl]oxy-4-pyridyl]pyrazolo[1,5-a]pyridin-2-yl]cyclopropanecarboxamide] | 8.04 | 0.000627 |
| Cc1cc(-c2ccn3nc(NC(=O)C4CC4)cc3c2)c(O[C@H]2CC[C@H](O)CC2)cn1 [Example 158, trans-N-[5-[5-(4-hydroxycyclohexoxy)-2-methyl-4-pyridyl]pyrazolo[1,5-a]pyridin-2-yl]cyclopropanecarboxamide] | 7.74 | 0.00132 |
| CN1CC[C@H](Oc2cnc(C#N)cc2-c2ccn3nc(NC(=O)C4CC4)cc3c2)C[C@@H]1C(F)(F)F (relative stereo) [Example 30, N-(5-(2-cyano-5-(((2*R,4*S)-1-methyl-2-(trifluoromethyl)piperidin-4-yl)oxy)pyridin-4-yl)pyrazolo[1,5-a]pyridin-2-yl)cyclopropanecarboxamide] | 8.35 | 0.00044 |
| COCCN1CC[C@H](Oc2cnc(C#N)cc2-c2ccn3nc(NC(=O)C4CC4)cc3c2)C1 [Example 108, (S)—N-[5-[2-cyano-5-[(3S)-1-(2-methoxyethyl)pyrrolidin-3-yl]oxy-4-pyridyl]pyrazolo[1,5-a]pyridin-2-yl]cyclopropanecarboxamide] | 6.69 | 0.00527 |
| N#Cc1cc(-c2ccn3nc(NC(=O)C4CC4)cc3c2)c(OC[C@H]2CC[C@H](O)CC2)cn1 [Example 53, trans-N-(5-(2-Cyano-5-(((1r,4r)-4-hydroxycyclohexyl)methoxy)pyridin-4-yl)pyrazolo[1,5-a]pyridin-2-yl)cyclopropanecarboxamide] | 7.87 | 0.000641 |
| O=C(Nc1cc2cc(-c3cc(OC(F)F)ncc3OC[C@@H]3CNCCO3)ccn2n1)C1CC1 [Example 503, N-[5-[2-(difluoromethoxy)-5-[[(2S)-morpholin-2-yl]methoxy]-4-pyridyl]pyrazolo[1,5-a]pyridin-2-yl]cyclopropanecarboxamide] | 7.17 | 0.0038 |
| Cc1cc(-c2ccn3nc(NC(=O)C4CC4)cc3c2)c(OCC2(N)CCCC2)cn1 [Example 155, N-[5-[5-[(1-aminocyclopentyl)methoxy]-2-methyl-4-pyridyl]pyrazolo[1,5-a]pyridin-2-yl]cyclopropanecarboxamide] | 7.81 | 0.00108 |
| CN1CCC(Oc2cnc(C#N)cc2-c2ccn3nc(NC(=O)C4CC4)cc3c2)CC1 [Example 85, N-[5-[2-cyano-5-[(1-methyl-4-piperidyl)oxy]-4-pyridyl]pyrazolo[1,5-a]pyridin-2-yl]cyclopropanecarboxamide] | 7.29 | 0.00256 |
| CCOc1cnc(C#N)cc1-c1ccn2nc(NC(=O)C3CC3)cc2c1 [Example 583, N-[5-(2-cyano-5-ethoxy-4-pyridyl)pyrazolo[1,5-a]pyridin-2-yl]cyclopropanecarboxamide] | 7.21 | 0.00412 |
| CC(=O)N1CCC(Oc2cnc(C#N)cc2-c2ccn3nc(NC(=O)C4CC4)cc3c2)C1 (single isomer, unassigned) [Example 56, (*R)—N-(5-(5-((1-Acetylpyrrolidin-3-yl)oxy)-2-cyanopyridin-4-yl)pyrazolo[1,5-a]pyridin-2-yl)cyclopropanecarboxamide] | 7.16 | 0.0036 |
| CN1C[C@H]2C[C@@H]1C[C@H]2Oc1cnc(C#N)cc1-c1ccn2nc(NC(=O)C3CC3)cc2c1 [Example 13, N-[5-[2-cyano-5-[[(1R,4R,5R)-2-methyl-2-azabicyclo[2.2.1]heptan-5-yl]oxy]-4-pyridyl]pyrazolo[1,5-a]pyridin-2-yl]cyclopropanecarboxamide] | 6.52 | 0.0208 |
| Cc1cc(-c2ccn3nc(Nc4cc(C)nc(C)n4)cc3c2)c(OC[C@H]2CC[C@@H](O)CO2)cn1 (single isomer, unassigned) [Example 582, (3*R, 6*R)-6-[[4-[2-[(2,6-dimethylpyrimidin-4-yl)amino]pyrazolo[1,5-a]pyridin-5-yl]-6-methyl-3-pyridyl]oxymethyl]tetrahydropyran-3-ol] | 7.21 | 0.00328 |
| Cc1cc(-c2cn3cc(NC(=O)C4CC4)nc3cn2)c(OCC(C)(C)C#N)cn1 [Example 508, N-[6-[5-(2-cyano-2-methyl-propoxy)-2-methyl-4-pyridyl]imidazo[1,2-a]pyrazin-2-yl]cyclopropanecarboxamide] | 7.27 | 0.00366 |
| Cc1cc(-c2ccn3nc(NC(=O)C4CC4)cc3c2)c(O[C@H]2C[C@](C)(N)C2)cn1 [Example 444, N-(5-(5-((1r,3r)-3-amino-3-methylcyclobutoxy)-2-methylpyridin-4-yl)pyrazolo[1,5-a]pyridin-2-yl)cyclopropanecarboxamide] | 8.79 | 0.000605 |
| Cc1cc(-c2ccn3nc(NC(=O)C4CC4)cc3c2)c(OC[C@H]2CC[C@@H](O)CC2)cn1 [Example 148, cis-N-[5-[5-[(4-hydroxycyclohexyl)methoxy]-2-methyl-4-pyridyl]pyrazolo[1,5-a]pyridin-2-yl]cyclopropanecarboxamide] | 7.23 | 0.00436 |
| CN1CC[C@@H](COc2cnc(C#N)cc2-c2ccn3nc(Nc4cccnc4)cc3c2)C1 [Example 4, (R)-5-((1-methylpyrrolidin-3-yl)methoxy)-4-(2-(pyridin-3-ylamino)pyrazolo[1,5-a]pyridin-5-yl)picolinonitrile] | 7.13 | 0.0039 |
| Cc1cc(-c2ccn3nc(Nc4cccnc4)cc3c2)c(O[C@H]2CC[C@H](O)CC2)cn1 [Example 290, (1r,4r)-4-((6-methyl-4-(2-(pyridin-3-ylamino)pyrazolo[1,5-a]pyridin-5-yl)pyridin-3-yl)oxy)cyclohexan-1-ol] | 7.08 | 0.00439 |
| N#Cc1cc(-c2ccn3nc(NC(=O)C4CC4)cc3c2)c(OC[C@H]2C[C@@H](O)C2)cn1 [Example 68, N-[5-[2-cyano-5-[(3-hydroxycyclobutyl)methoxy]-4-pyridyl]pyrazolo[1,5-a]pyridin-2-yl]cyclopropanecarboxamide] | 7.62 | 0.000666 |
| CC1(C)CNC[C@H](COc2ccc(C#N)cc2-c2ccn3nc(NC(=O)C4CC4)cc3c2)O1 [Example 102, N-[5-[5-cyano-2-[[(2R)-6,6-dimethylmorpholin-2-yl]methoxy]phenyl]pyrazolo[1,5-a]pyridin-2-yl]cyclopropanecarboxamide] | > 9.08 | 0.000413 |
| Cc1cc(-c2ccn3nc(Nc4cnn(C)c4)cc3c2)c(OC2CN(C)C2)cn1 [Example 568, 5-[2-methyl-5-(1-methylazetidin-3-yl)oxy-4-pyridyl]-N-(1-methylpyrazol-4-yl)pyrazolo[1,5-a]pyridin-2-amine] | 7.03 | 0.00471 |
| N#Cc1cc(-c2ccn3nc(NC(=O)C4CC4)cc3c2)c(OC[C@H](O)C(F)(F)F)cn1 [Example 97, N-[5-[2-cyano-5-[(2S)-3,3,3-trifluoro-2-hydroxy-propoxy]-4-pyridyl]pyrazolo[1,5-a]pyridin-2-yl]cyclopropanecarboxamide] | 6.94 | 0.00609 |
| CN1CCC[C@@H](COc2cnc(C#N)cc2-c2ccn3nc(NC(=O)C4CC4)cc3c2)C1 [Example 37, (R)—N-(5-(2-cyano-5-((1-methylpiperidin-3-yl)methoxy)pyridin-4-yl)pyrazolo[1,5-a]pyridin-2-yl)cyclopropanecarboxamide] | 6.95 | 0.00725 |
| CN1[C@@H]2CC[C@H]1C[C@@H](COc1cnc(C#N)cc1-c1ccn3nc(NC(=O)C4CC4)cc3c1)C2 [Example 83, N-(5-(2-cyano-5-(((1R,3R,5S)-8-methyl-8-azabicyclo[3.2.1]octan-3-yl)methoxy)pyridin-4-yl)pyrazolo[1,5-a]pyridin-2-yl)cyclopropanecarboxamide] | 7.25 | 0.00299 |
